Counter-ions that a name gives are not always drawn. Like-named read-outs stand apart in the source and are kept apart here.
Tests used:
Rat = test: Acute toxicity in rats; type: in vivo, Male and female rats of the Wistar strain; conditions: 7 days observation
Text: They were preliminarily raised for a week.

Aspirin Ulcer = test: Anti-ulcer effect: aspirin ulcer; type: in vivo, Male rats of the Donryu strain; conditions: p.o., aspirin 250 mg/kg, 6 hours
Procedure: (§1) The anti-ulcer effect of some compounds of this invention was evaluated with regard to various types of experimental gastric and duodenal ulcers. The method of evaluation for each type of ulcer is outlined below.
Male rats of the Donryu strain, 10 to 11 weeks of age, were used in groups of ten. After 24 hours of fasting, a certain amount of a compound to be tested was orally administered to each animal of a group. Ten minutes later, aspirin was orally administered in a dose of 250 mg/kg. After 6 hours, the size of the ulcer formed in the glandular part of the stomach was rated by visual inspection and regarded as an ulcer index (U.I.). The results are also expressed in terms of the percentage of inhibition based on the U.I. obtained in the control group receiving no compounds to be tested.

pepsin = test: Effect on pepsin activity (pyloric ligation, Anson's method); type: in vivo, Male rats of the Donryu strain; conditions: 250 mg/kg, p.o.; 4 hours; control 7.4 ± 0.5; significant at 1% level
Procedure: (§2) Male rats of the Donryu strain, 11 weeks of age, were used in groups of ten. After 24 hours of fasting, the pyloric part of the stomach was ligated. Four hours later, the gastric juice was collected and its volume was measured. Then, its acidity was determined by titrating an aliquot of the gastric juice with 0.05 N sodium hydroxide. Further, the activity of pepsin was determined by Anson's method. A definite amount (250 mg/kg) of a compound to be tested was orally administered immediately after the pyloric ligation.

[1] = test system: Cysteamine Duodenal Ulcer; test: Anti-ulcer effect: cysteamine duodenal ulcer; type: in vivo, Male rats of the Donryu strain; conditions: p.o., cysteamine hydrochloride 400 mg/kg, 18 hours
Procedure: as §1
(iv) Cysteamine Duodenal Ulcer
Male rats of the Donryu strain, 10 or 11 weeks of age, were used in groups of ten. After 24 hours of fasting, a certain amount of a compound to be tested was orally administered to each animal of a group. Thirty minutes later, cysteamine hydrochloride was orally administered in a dose of 400 mg/kg. After 18 hours, the product of the maximum and minimum diameters of the ulcer formed in the duodenum was determined and regarded as an ulcer index (U.I.). The results are also expressed in terms of the percentage of inhibition based on the U.I. obtained in the control group receiving no compounds to be tested.

Gastric Juice Acidity = test: Effect on gastric juice acidity (pyloric ligation, titration with 0.05 N sodium hydroxide); type: in vivo, Male rats of the Donryu strain; conditions: 250 mg/kg, p.o.; 4 hours; control 92.5 ± 3.7; significant at 5% level
Procedure: as §2

Acetic Acid Ulcer = test: Anti-ulcer effect: acetic acid ulcer; type: in vivo, Male rats of the Wistar strain; conditions: p.o., twice a day for 7 days
Procedure: as §1
Male rats of the Wistar strain, 6 weeks of age, were used in groups of ten. Under ether anesthesia, each animal was laparotomized, a round frame (with an inside diameter of 5 mm) made of stainless steel was applied to the anterior wall of the stomach, and 100% acetic acid was poured into the frame. After 30 seconds, the acetic acid was removed and the abdomen was closed. Starting on the 7th day after the operation, a certain amount of a compound to be tested was orally administered twice a day to each animal of a group for a period of 7 days. Thereafter, the degree of healing of the ulcer was rated by visual inspection and regarded as an ulcer index (U.I.). The results are also expressed in terms of the percentage of healing based on the U.I. obtained in the control group receiving no compounds to be tested.

Stress Ulcer = test: Anti-ulcer effect: stress ulcer; type: in vivo, Male rats of the Wistar strain; conditions: p.o., stress for 16 hours, vs control U.I.
Procedure: as §1
Male rats of the Wistar strain, 8 weeks of age, were used in groups of ten. Each animal was immobilized in a stressing cage as developed by Takagi et al., immersed in water at 23° C. to the level of the xiphoid process, and thereby subjected to stress for 16 hours. Thereafter, the stomach was excised. The length of the ulcer formed in the glandular part of the stomach was measured and regarded as an ulcer index (U.I.). A certain amount of a compound to be tested was orally administered just before subjecting the animal to stress. The results are also expressed in terms of the percentage of inhibition based on the U.I. obtained in the control group receiving no compounds to be tested.

Mouse = conditions: 7 days observation
Procedure: Male and female mice of the dd Y strain, 4 weeks of age, as well as male and female rats of the rats of the Wistar strain, 7 weeks of age, were used in groups of ten. They were preliminarily raised for a week. Then, a compound to be tested (sodium salt) was dissolved in physiological saline solution and administered orally or subcutaneously. In the case of oral administration, the highest possible doses of 0.2 ml/10 g for mice and 2 ml/100 g for rats were used which both corresponded to 5,000 mg/kg. In the case of subcutaneous administration, the doses were reduced to 1/2. […] The animals that died during this period of observation were subjected to post-mortem examination.

Shay's Ulcer = test: Anti-ulcer effect: Shay's ulcer (pyloric ligation); type: in vivo, Male rats of the Wistar strain; conditions: p.o., 12 hours, vs control U.I.
Procedure: as §1
Male rats of the Wistar strain, 7 or 8 weeks of age, were used in groups of ten. After 48 hours of fasting, the pyloric part of the stomach was ligated under ether anesthesia. Immediately after the operation, a certain amount of a compound to be tested was orally administered to each animal of a group. After 12 hours, the degree of ulceration occurring in the anterior part of the stomach was rated and regarded as an ulcer index (U.I.). Control rats were treated in the same manner as described above, except that they received no compounds to be tested. The results given in Table 1 are expressed in terms of the percentage of inhibition based on the U.I. obtained in the control group.

Gastric Juice Secretion = test: Effect on gastric juice secretion (pyloric ligation); type: in vivo, Male rats of the Donryu strain; conditions: 250 mg/kg, p.o.; 4 hours; control 4.9 ± 0.4; significant at 5% level
Procedure: as §2

SMILES	percentage of inhibition (Aspirin Ulcer) (Aspirin Ulcer; 100 mg/kg)	percentage of inhibition (Aspirin Ulcer) (Aspirin Ulcer; 250 mg/kg)	Activity of Pepsin (pepsin) [mg/mL]	Acidity of Gastric Juice (Gastric Juice Acidity) [mEq/l]	percentage of healing (Acetic Acid Ulcer) (Acetic Acid Ulcer; 100 mg/kg)	percentage of healing (Acetic Acid Ulcer) (Acetic Acid Ulcer; 250 mg/kg)	percentage of inhibition (Stress Ulcer) (Stress Ulcer; 250 mg/kg)	percentage of inhibition (Shay's Ulcer) (Shay's Ulcer; 100 mg/kg)	percentage of inhibition (Shay's Ulcer) (Shay's Ulcer; 250 mg/kg)	Amount of Gastric Juice Secreted (Gastric Juice Secretion) [mL]	other results
O=S(=O)([O-])OC1C(OS(=O)(=O)[O-])C(OS(=O)(=O)[O-])C(OS(=O)(=O)[O-])C(OS(=O)(=O)[O-])C1OS(=O)(=O)[O-].[Na+].[Na+].[Na+].[Na+].[Na+].[Na+] (stereo not shown) [Sodium Salt, inositol hexasulfate sodium salt]	44 percentage of inhibition	48 percentage of inhibition	5.0 ± 0.4	58.4 ± 11.7	29 percentage of healing	16 percentage of healing	27 percentage of inhibition	92 percentage of inhibition	77 percentage of inhibition	3.3 ± 0.4	LD50 (Rat; Oral): > 5,000 mg/kg; LD50 (Rat; Subcutaneous): > 2,500 mg/kg; percentage of inhibition (Aspirin Ulcer) (Aspirin Ulcer; 50 mg/kg): 11 percentage of inhibition; percentage of inhibition (Cysteamine Duodenal Ulcer) ([1]; 100 mg/kg): 37 percentage of inhibition; percentage of inhibition (Cysteamine Duodenal Ulcer) ([1]; 250 mg/kg): 46 percentage of inhibition; percentage of inhibition (Cysteamine Duodenal Ulcer) ([1]; 500 mg/kg): 77 percentage of inhibition; percentage of healing (Acetic Acid Ulcer) (Acetic Acid Ulcer; 500 mg/kg): 38 percentage of healing; percentage of inhibition (Stress Ulcer) (Stress Ulcer; 500 mg/kg): 50 percentage of inhibition; LD50 (Mouse; Oral): > 5,000 mg/kg; LD50 (Mouse; Subcutaneous): > 2,500 mg/kg; percentage of inhibition (Shay's Ulcer) (Shay's Ulcer; 50 mg/kg): 74 percentage of inhibition
O=S(=O)(O)OC1C(OS(=O)(=O)O)C(OS(=O)(=O)O)C(OS(=O)(=O)O)C(OS(=O)(=O)O)C1OS(=O)(=O)O (stereo not shown) [Potassium Salt, inositol hexasulfate potassium salt]	46 percentage of inhibition	40 percentage of inhibition	5.2 ± 0.4	60.2 ± 11.8	28 percentage of healing	22 percentage of healing	25 percentage of inhibition	85 percentage of inhibition	80 percentage of inhibition	3.5 ± 0.4	

— patent US4207339A, “Anti-ulcer pharmaceutical composition containing inositol hexasulfate or an alkaline metal salt thereof as active ingredient” (Mitsui Toatsu Chemicals, Incorporated, priority 1978, dated 1980)
